Source: US7977366B2, “Treating an inflammatory disorder or inhibiting respiratory burst in adherent neutrophils with chemical inhibitors of neutrophil activation” (Cornell Research Foundation, Inc., priority 2003, dated 2011)
“Also recorded” adds a separate entry of the source. Like-named read-outs stand apart in the source and are kept apart here.

Experiments:
human neutrophils [1] = assay: TNF-triggered H2O2 release (respiratory burst) by adherent human neutrophils; type: cell-based; details: for IC50: Homo sapiens, Neutrophil, TNF 100 ng/ml; for Concentration that consistently yielded over 95% inhibition on TNF triggered RB: empirically decided for each compound
Protocol: Contaminating erythrocytes were lysed by hypotonic shock for 45 seconds with 0.2% saline.
Briefly, 15,000 compounds were screened to identify specific inhibitors of TNF-triggered H2O2 release in human neutrophils. H2O2 release was measured as above except a few modifications to adapt to high throughput screening. […] Percent inhibition by each compound was calculated using the formula: […]
Briefly, 96-well flat-bottomed plates (Primaria, Falcon) were coated with 50 μl/well of FBS in 5% CO2 at 37° C. for at least 1 h and washed three times with 0.9% saline. Neutrophils (1.5×10^4) were added to triplicate wells containing 100 μl of reaction mixture (2.4 nm scopoletin, 0.5 μg horseradish peroxidase (HRP), and 1 mM NaN3) and stimulated with either buffer control, TNF (PreproTech, London, UK) or phorbol myristate acetate (PMA), each at 100 ng/ml. […] The supernatant from the H2O2 release assay with 1.5×10^4 neutrophils was used to measure degranulation using lactoferrin (LF) or myeloperoxidase (MPO) ELISA kit (Oxis International, Inc., Portland, Oreg.). Spontaneous cell death from the same supernatant was measured using Cytotoxicity Detection Kit (Roche Molecular Biochemicals, Nutley, N.J.). The total cell content of LF, MPO, and lactate dehydrogenase (LDH) was determined after lysing cells with 1% Triton X100. LDH is a cytosolic enzyme whose release indicates cell lysis, such that high release of LF or MPO in the face of low release of LDH is taken as a measure of degranulation.

human neutrophils [2] = assay: TNF triggered degranulation of neutrophils (lactoferrin and myeloperoxidase release, ELISA); type: cell-based; details: for myeloperoxidase (MPO) release triggered by TNF: marker of azurophil granule; for lactoferrin (LF) release triggered by TNF: marker of specific granule
Protocol: Respiratory burst was measured as described elsewhere (De la Harpe et al., “A Semi-Automated Micro-Assay for H2O2 Release by Human Blood Monocytes and Mouse Peritoneal Macrophages,” J Immunol Methods 78:323-336 (1985), which is hereby incorporated by reference in its entirety). Briefly, 96-well flat-bottomed plates (Primaria, Falcon) were coated with 50 μl/well of FBS in 5% CO2 at 37° C. for at least 1 h and washed three times with 0.9% saline. Neutrophils (1.5×10^4) were added to triplicate wells containing 100 μl of reaction mixture (2.4 nm scopoletin, 0.5 μg horseradish peroxidase (HRP), and 1 mM NaN3) and stimulated with either buffer control, TNF (PreproTech, London, UK) or phorbol myristate acetate (PMA), each at 100 ng/ml. The reduction of scopoletin by H2O2 was recorded every 15 min on a plate-reading fluorometer until H2O2 release reached plateau and the amount of H2O2 released calculated as described (De la Harpe et al., “A Semi-Automated Micro-Assay for H2O2 Release by Human Blood Monocytes and Mouse Peritoneal Macrophages,” J Immunol Methods 78:323-336 (1985), which is hereby incorporated by reference in its entirety). The supernatant from the H2O2 release assay with 1.5×10^4 neutrophils was used to measure degranulation using lactoferrin (LF) or myeloperoxidase (MPO) ELISA kit (Oxis International, Inc., Portland, Oreg.). Spontaneous cell death from the same supernatant was measured using Cytotoxicity Detection Kit (Roche Molecular Biochemicals, Nutley, N.J.). The total cell content of LF, MPO, and lactate dehydrogenase (LDH) was determined after lysing cells with 1% Triton X100. LDH is a cytosolic enzyme whose release indicates cell lysis, such that high release of LF or MPO in the face of low release of LDH is taken as a measure of degranulation.
To test whether any of these compounds has any role in degranulation, the release of lactoferrin (LF) (as a marker of specific granule) and myeloperoxidase (MPO, as a marker of azurophil granule) were measured in the supernatant. […] The effect of Comp I on LF release was inconclusive due to high background release of LF in non-stimulated cells.

[3] = 1.5 h, H2O2 release at 90 min, read-out: IC50, TNF triggered H2O2 release

IC50 (human neutrophils [1]; [3]) [nM]	IC50 (human neutrophils [1]; range given with mixed units nM and μM, read-out: IC50, TNF triggered H2O2 release (very variable)) [nM]	Compound	Concentration that consistently yielded over 95% inhibition on TNF triggered RB (human neutrophils [1]) [µM]	myeloperoxidase (MPO) release triggered by TNF (human neutrophils [2])	lactoferrin (LF) release triggered by TNF (human neutrophils [2])	effect on TNF triggered H2O2 release (respiratory burst) (human neutrophils [1]; result in words)	degranulation of neutrophils (general statement) (human neutrophils [2])
~180		Cc1nc(N/N=C/c2ccccc2O)c2c3c(sc2n1)CCCC3 [Comp I, 2-[(2-Methyl-5,6,7,8-tetrahydro-benzo[4,5]thieno [2,3-a]pyrimidin-4-yl)-hydrazonomethyl]-phenol]	2	almost complete inhibition	inconclusive		
2500 ± 1500		C(=N\Nc1ncnc2sc3c(c12)CCCC3)/c1cccnc1 [Comp III, N-Pyridin-3-ylmethylene-N-(5,6,7,8-tetrahydro-benzo[4,5] [2,3-a]pyrimidin-4-yl)-hydrazine]	5	almost complete inhibition	partially inhibited		
	3 to 2000	O=C(CSc1nc2ccccc2s1)N/N=C/c1cc([N+](=O)[O-])ccc1O [Comp IV, (Benzothiazol-2-ylsulfanyl)-acetic acid (2-hydroxy-5-nitro-benzylidene) -hydrazide]	10	almost complete inhibition	partially inhibited		

Compound	IC50 (human neutrophils [1]; [3]) [nM]	IC50 (human neutrophils [1]; range given with mixed units nM and μM, read-out: IC50, TNF triggered H2O2 release (very variable)) [nM]	Concentration that consistently yielded over 95% inhibition on TNF triggered RB (human neutrophils [1]) [µM]	myeloperoxidase (MPO) release triggered by TNF (human neutrophils [2])	lactoferrin (LF) release triggered by TNF (human neutrophils [2])	effect on TNF triggered H2O2 release (respiratory burst) (human neutrophils [1]; result in words)	degranulation of neutrophils (general statement) (human neutrophils [2])
O=C1CC(c2ccccc2)=NN1c1cccc(Cl)c1 [Comp II, 2-(3-Chloro-phenyl)-5-phenyl-2,4-dihydro-pyrazol-3-one]	1600 ± 400		5	very moderate inhibition	did not block	inhibited	takes place normally; also recorded: sparing
